Read-outs that look alike come from different tables or passages of the source.
How the values were obtained:
[1] = test system: chronic pain; test: Intrathecal ketorolac in patients with chronic pain receiving spinal morphine (VAS); assay type: in vivo, humans
Source text: This study focused on safety, but efficacy measures were obtained by having patients rate their pain using a visual analog scale (VAS) before, and at intervals after, intrathecal injection of ketorolac. Data are available from the first 6 patients in this open label study.

[2] = test system: PGE2; test: CSF PGE2 concentrations in conscious dogs after i.t. ketorolac; assay type: in vivo; conditions: within 30 min of injection
[3] = Phase I safety trial of intrathecal ketorolac in healthy volunteers; assay type: in vivo, humans
[4] = test system: phosphorylated CREB; test: pCREB immunoreactive cells in dorsal horn of PSNL rats; assay type: in vivo; conditions: for increased number of pCREB-IR cells in the ipsilateral dorsal horn: 5 days after injection, three weeks after PSNL
Description: Quantitative analysis of the pCREB expression in the dorsal horn of PSNL rats receiving either saline or ketorolac intraplantar injection was conducted. […] However, no significant difference in the mean optical density in a fixed area occupied by pCREB-IR cells was detected between both sides of the dorsal horn.

[5] = test system: locomotor activity after laparotomy; test: Post-laparotomy locomotor activity model; assay type: in vivo, rats
[6] = test system: PGE2; test: PGE2 concentration in cerebrospinal fluid of volunteers; assay type: in vivo, humans; conditions: for Pre-injection PGE2: CSF before injection; for Post-injection PGE2: CSF 60 min after injection
[7] = test system: COX-1 and COX-2; conditions: as known in the art / Warner, 1999; cited from earlier work
[8] = not given; remark: listed apart in the source
[9] = Ketorolac concentration in cerebrospinal fluid (HPLC); assay type: in vivo, humans; conditions: for concentration at 60 min: human, other: intrathecal (lumbar puncture), lumbar CSF 60 min after injection
Description: Escalation to the next dose was made only after review of side effects occurring at lower doses, with pre-defined stopping criteria. CSF samples were quantitatively extracted by C-18 reverse phase cartridge chromatography and eluted with acetonitrile. Concentrated eluates were injected on to a HPLC equipped with a Phenomenex 'Prodigy' C-18 reverse phase column (250 mm×4.6 mm). Peaks were detected with an Agilent Model 1100 UV detector set at a wavelength of 313. All unknowns, standards and controls contained an equal quantity of internal standard, 200 ng of indoprofen.

[10] = test system: noxious heat; test: Latency to paw withdrawal from noxious heat; assay type: in vivo, male Sprague-Dawley rats
Description: After Animal Care and Use Committee approval, adult male Sprague-Dawley rats (240-330 g; Harlan, Indianapolis, Ind.) were anesthetized with halothane. A catheter was inserted, as previously described, through a small nick in the cisterna magnum membrane into the intrathecal space and advanced 7.5 cm such that its tip lay in the lumbar intrathecal space. […] After catheter implantation, rats were housed individually with a 12 h/12 h light/dark cycle and an unlimited supply of water and food. Experiments occurred at least 6 days after surgery.

[11] = test system: tactile allodynia; test: L5 and L6 spinal nerve ligation (SNL) tactile allodynia, lidocaine and ketorolac; assay type: in vivo, male Sprague-Dawley rats
[12] = test system: tactile allodynia; test: Partial sciatic nerve ligation (PSNL) tactile allodynia, i.t. COX inhibitors; assay type: in vivo, Sprague-Dawley rats
Source text: A Sprague-Dawley rats (Harlan Industries, Indianapolis, Ind., USA), weighing 200-250 g, were used in this study. All animal surgical procedures were in conformity with the Wake Forest University guidelines on the ethical use of animals and studies were approved by the Animal Care and Use Committee. Animals were implanted with intrathecal catheters according to the method described previously. (Yaksh TL, 1976). Briefly, under halothane anesthesia (2-4% in oxygen/air), animals were placed prone in a stereotaxic frame and a small incision was made at the back of the neck. A small puncture was made in the atlanto-occipital membrane of the cistema magna and a polyethylene catheter (PE-10, 7.5 cm) was inserted so that the caudal tip reached the lumbar enlargement of the spinal cord. The rostral end of the catheter was exteriorized at the top of the head and the wound was closed with sutures. Animals were allowed 4-5 days to recover from the surgery and those displaying signs of motor dysfunction (fore limb or hind limb paralysis) were excluded from the study. Rats were anesthetized with 2-4% halothane in oxygen-air. For partial […] nerve ligation (PSNL), the left sciatic nerve was exposed at the high thigh level and one-third to one-half of the nerve was ligated with silk suture (size 6) as previously described (Shir et al., 1991). Animals were maintained after surgery with ad libitum food and water on a 12-h light/dark cycle. All rats were allowed to recover for 4 weeks after PSNL. By then, tactile allodynia was well established in the ipsilateral hindpaw.

[13] = test system: tactile hypersensitivity after paw incision; test: Brennan model: tactile hypersensitivity after paw incision, von Frey withdrawal threshold; assay type: in vivo, male Sprague-Dawley rats
[14] = intraplantar injection, vs saline injected rats, P<0.01
[15] = i.t. 50 μg, compared to i.t. saline control
[16] = intrathecal ketorolac 50 μg, 1 week after 200 μg intrathecal lidocaine
[17] = intrathecal ketorolac 50 μg, 1 week after 300 μg intrathecal lidocaine

In the case of `O=C(c1ccccc1)c1ccc2n1CCC2C(=O)O` (stereo not drawn) [ketorolac], the VAS pain ([1]; beginning 1 hour after injection and lasting throughout the remaining 3 hours of observation, n=6) is reported as “significantly reduced”, the adverse events ([1]; i.t. 0.5 mg (5 patients) or 1.0 mg (1 patient), patients on spinal morphine) is reported as “no significant adverse events” and the “VAS pain after injection” value ([1]; n=6) is reported as 3. For the same molecule, the “VAS pain prior to injection” value ([1]; n=6) was 5, the “reduction of CSF PGE2 concentrations” value [2] was over 90% and the “systemic toxicity at large doses” value (dog, in vivo) was “gastrointestinal ulceration and bleeding”. For the same molecule, the spinal neurotoxicity (i.t., dogs) was “no evidence for spinal neurotoxicity”, the headache ([3]; 0.5 mg i.t., one individual, 24 h after injection, resolved the following day) was “mild headache” and the “heart rate prior to injection, range” value ([3]; entire group) was 52-86 bpm. For the same molecule, the “minimum heart rate at any time after injection, range” value ([3]; entire group) was 45-69 bpm, the “heart rate prior to injection” value ([3]; entire group, mean ± SE) was 67±2.1 bpm and the “minimum heart rate at any time after injection” value ([3]; entire group, mean ± SE) was 57±1.7 bpm. The heart rate ([3]; for 1 hr following ketorolac, significant within each dose group except 2.0 mg) was “decreased”, the side effects ([3]; i.t. 0.25, 0.5, 1, or 2 mg open label dose-escalation, early studies of 14 subjects) was “no side effects were observed” and the “blood pressure, oxyhemoglobin saturation, end-tidal CO2” value ([3]; i.t. 0.25-2 mg) was “did not affect”. For the same molecule, the “deviation of blood pressure, oxyhemoglobin saturation, end-tidal CO2 from pre-injection values” ([3]; i.t. 0.25-2 mg) was at most 10%, the “side effects at long-term follow up” value ([3]; i.t. 0.25-2 mg) was “no side effects” and the subjective neurologic symptoms ([3]; i.t. 0.25-2 mg) was “no subjective neurologic symptoms in any volunteer”. The symptomatic bradycardia ([3]; i.t. 0.25-2 mg) was “In no case”, the “sedation, anxiety, gastrointestinal or genitourinary symptoms, or dizziness” value ([3]; i.t. 0.25-2 mg, at any time) was “No volunteer reported” and the neurologic examination ([3]; i.t. 0.25-2 mg, twenty volunteers) was “no effect”. The side effects ([3]; i.t., doses up to 1.0 mg) was “no side effects”, the “increased number of pCREB-IR cells in the ipsilateral dorsal horn” value ([4]; intraplantar injection) was “dramatically reduced” and the “mean optical density of pCREB-IR cells, contralateral dorsal horn” value [4, 14] was “significantly decreased”. For the same molecule, the “mean optical density of pCREB-IR cells, ipsilateral dorsal horn” value [4, 14] was “significantly decreased”, the “number of pCREB-IR cells in the contralateral dorsal horn” value ([4]; local injection, compared with saline injected PSNL rats) was “also decreased” and the “increased number of pCREB-IR cells in the ipsilateral dorsal horn” value ([4]; peri-neural injection) was “dramatically reduced”. For the same molecule, the “ambulatory locomotor activity after laparotomy” value [5, 15] was “increased”, the “vertical locomotor activity after laparotomy” value [5, 15] was “increased” and the “locomotor activity in the absence of surgery” value ([5]; ketorolac alone) was “no effect”. For the same molecule, the “effect on morphine's effect on ambulatory activity” value ([5]; systemic ketorolac 5 mg/kg i.p. with morphine) was “potentiate morphine's effect”, the “ambulatory activity after laparotomy” value ([5]; systemic, 5 mg/kg i.p.) was “failed to affect ambulatory activity” and the “Pre-injection PGE2” value ([6]; 0.25 mg dose group) was 4.7 ± 0.7 pg/mL. For the same molecule, the “Post-injection PGE2” value ([6]; 0.25 mg i.t.) was 6.0 ± 0.9 pg/mL, the “Pre-injection PGE2” value ([6]; 0.50 mg dose group) was 5.6 ± 1.9 pg/mL and the “Post-injection PGE2” value ([6]; 0.50 mg i.t.) was 3.8 ± 0.6 pg/mL. The “Pre-injection PGE2” value ([6]; 1.0 mg dose group) was 4.1 ± 0.9 pg/mL, the “Post-injection PGE2” value ([6]; 1.0 mg i.t.) was 8.5 ± 1.7 pg/mL and the “Pre-injection PGE2” value ([6]; 2.0 mg dose group) was 4.9 ± 0.7 pg/mL. The “Post-injection PGE2” value ([6]; 2.0 mg i.t.) was 7.5 ± 1.7 pg/mL, the “CSF PGE2 concentration 60 min after ketorolac injection” value ([6]; entire study population) was 6.1 ± 0.6 pg/mL and the “CSF PGE2 concentration prior to ketorolac injection” value ([6]; entire study population) was 4.9 ± 0.5 pg/mL. For the same molecule, the “effect on CSF PGE2 concentrations” value ([6]; entire study population, 60 min after injection) was “not affected”, the “preference in inhibition of COX-1 and COX-2” value [7] was “one of the most selective COX-1 antagonists” and the spinal neurotoxicity ([8]; i.t., rats) was “no evidence for spinal neurotoxicity”. The “systemic toxicity at large doses” value ([8]; rat, in vivo) was “gastrointestinal ulceration and bleeding”, the “dose dependence of lumbar CSF drug concentration” value ([9]; 60 min after injection) was “apparent plateau at the 1 and 2 mg doses” and the concentration at 60 min ([9]; 0.5 mg, 0.50 mg i.t.) was 13400 ± 1200 ng/mL. It also gave a concentration at 60 min ([9]; 0.25 mg i.t.) of 4600 ± 200 ng/mL, a concentration at 60 min ([9]; 1.0 mg i.t.) of 30700 ± 8800 ng/mL and a concentration at 60 min ([9]; 2.0 mg i.t.) of 33500 ± 5200 ng/mL. For the same molecule, the “antinociception (latency to paw withdrawal from noxious heat)” value ([10]; addition of ketorolac to clonidine) was “increased antinociception”, the “antinociception (latency to paw withdrawal from noxious heat)” value ([10]; drug alone, rats with intrathecal catheter) was “did not” and the “withdrawal threshold to noxious heat” value ([10]; i.t. ketorolac, rats) was “lack of effect”. The “tactile allodynia caused by SNL” value ([11]; intrathecal ketorolac 50 μg alone) was “failed to attenuate”, the antiallodynic effect ([11]; intrathecal ketorolac 50 μg, 1 week after 100 μg intrathecal lidocaine) was “failed to exert any antiallodynic effect” and the “duration of reversal of tactile allodynia” value [11, 16] was 4 h. The “tactile allodynia caused by SNL” value [11, 16] was “reversed tactile allodynia”, the “duration of reversal of tactile allodynia” value [11, 17] was 4 h and the “tactile allodynia caused by SNL” value [11, 17] was “reversed tactile allodynia”. The SNL-induced tactile allodynia ([11]; intrathecal ketorolac 50 μg, 1 week following prior intrathecal ketorolac 50 μg) was “failed to alleviate”, the SNL-induced tactile allodynia ([11]; intrathecal ketorolac 100 μg alone) was “failed to alleviate” and the SNL-induced tactile allodynia ([11]; intrathecal ketorolac 100 μg, 1 week after intrathecal lidocaine) was “exhibited the antiallodynic effect”. The antiallodynic effect ([11]; one day after intrathecal ketorolac, rats previously given 200 and 300 μg lidocaine) was “disappeared”, the “duration of reversal of withdrawal threshold” value ([12]; 4 weeks after PSNL) was 6 days and the “withdrawal threshold, ipsilateral hindpaw” value ([12]; 4 weeks after PSNL, two hours following injection) was “significantly reversed to pre-lesion baseline”. The “withdrawal threshold, ipsilateral hindpaw” value ([12]; eight days after injection) was “returned to the pre-injection level”, the “withdrawal threshold (von Frey) after paw incision” value ([13]; i.t. 50 μg given on the first postoperative day, established tactile hypersensitivity, within 30 min) was “increased withdrawal threshold” and the “withdrawal threshold (von Frey) after paw incision” value ([13]; i.t. 50 μg, pretreatment 15 min before surgery, compared to saline control 2 hr later and on the next day) was “increased withdrawal threshold”.

— patent publication US20030181426A1, “Compositions and methods for treating pain using cyclooxygenase-1 inhibitors” (priority 2002, published 2003)
